Columns and labels:
DNFB-induced dermatitis = test: DNFB contact dermatitis in mice, ear thickness; type: in vivo, mouse; conditions: mice, PEG 400 solution, each day for 7 days; (S)-OOPP 0.1-10% w/v, compound 6 0.1%
Protocol: 2,4-dinitrofluorobenzene (DNFB) (Sigma-Aldrich, Italy) was dissolved in acetone. On day 1 and 2, mice (CD1, 25-30 g, Charles River, Calco, Italy) were sensitized on the skin of the abdomen with hapten (20 μL of 0.5% DNFB). After 5 days, on day 7, mice were challenged with hapten (20 μL of 0.2% DNFB) in the earlobe and treated with drugs to be tested. Control group received the vehicle used to dissolve drugs. Mice (five per group) were placed in a plastic cage. On day 8, ear thickness was determined after challenge using a caliper. Results are expressed as absolute ear thickness.
Fresh drug suspensions of compound 6 were prepared immediately before use in a vehicle consisting of petrolatum plus 5% lauric acid and given in a volume of 20 μL/mouse. Mice were treated with different concentrations of compound 6 or vehicle together with DNFB challenge on […].
Compound 6 and the reported β-lactone NAAA inhibitor (S)-OOPP (Solorzano et al., Proceedings of the National Academy of Science USA 2009, 106, 20966-20971; Solorzano et al., Journal of Medicinal Chemistry 2010, 53, 5770-5781) were tested in this model for their contact sensitivity response. Fresh drug solutions of (S)-OOPP and compound 6 were prepared immediately before use in polyethylene glycol 400 (PEG 400) and given in a volume of 20 μL/ear. Mice were treated with different concentrations of (S)-OOPP, 0.1% compound 6 or vehicle each day for 7 days. Ear thickness was determined on day 0 and every day before challenge using a caliper. Results are expressed as absolute ear thickness.
The methods included the following. Dermatitis was produced in mice using 2-4 dinitrofluorobenzene (DNFB) as described by Buckley and Nijkamp (1994), Am J Respir Grit Care Med 149:400-7. Mice were sensitized on two consecutive days with a 0.5% DNFB solution applied to the shaved abdomen. At day 8, the ears were challenged with a 0.2% DNFB solution. Ear thickness was determined by using a micrometer. Scratching was evaluated as number of episodes per 60 minutes period. Data were analysed by ANOVA followed by the Bonferroni's test. See also Hargreaves K, et al (1988), Pain 32: 77-88 for related information.

Acid Ceramidase (AC) = Acid Ceramidase (AC) (Rattus norvegicus (Rat), UniProt Q6P7S1); test: Acid ceramidase inhibition, recombinant rat AC, LC-MS; type: biochemical; conditions: for IC50: read-out: r-AC IC50; for inhibition at 0.3 µM: read-out: r-AC % inhib. @ 0.3 μM
Acid Ceramidase (AC), sequence (Q6P7S1 21-394): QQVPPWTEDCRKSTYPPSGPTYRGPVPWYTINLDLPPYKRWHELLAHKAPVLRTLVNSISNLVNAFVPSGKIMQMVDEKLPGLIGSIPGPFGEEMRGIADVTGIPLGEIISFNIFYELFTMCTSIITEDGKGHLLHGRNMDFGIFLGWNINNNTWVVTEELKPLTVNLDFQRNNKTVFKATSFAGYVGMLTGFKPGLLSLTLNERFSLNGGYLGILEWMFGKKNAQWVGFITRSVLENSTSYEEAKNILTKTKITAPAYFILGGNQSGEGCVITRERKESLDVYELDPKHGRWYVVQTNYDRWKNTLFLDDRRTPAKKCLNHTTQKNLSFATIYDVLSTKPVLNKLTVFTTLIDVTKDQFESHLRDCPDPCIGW
Protocol: The PCR (High Fidelity PCR Master, Roche) product was subcloned into a pEF6-[…] vector (Invitrogen) to construct a mammalian expression vector encoding […]-tagged rat AC. HEK293 cells were transfected with pEF6-rAC-[…] using Super-Fect reagent (Qiagen) and screened with G418 (0.3 mg/mL). Cells were suspended in 20 mM Tris HCl (pH 7.5) containing 0.32M sucrose, sonicated and centrifuged at 800×g for 15 minutes at 4° C. The supernatants were centrifuged again at 12,000×g for 30 minutes at 4° C. The pellets were suspended in phosphate-buffered saline (PBS) and subjected to 2 freeze-thaw cycles at -80° C. The suspensions were centrifuged at 105,000×g for 1 hour at 4° C. The supernatants containing recombinant AC were kept at -80° C. until use. Protein concentration was measured using the bicinchoninic acid (BCA) assay (Pierce). […] Reactions were stopped by addition of a mixture of chloroform/methanol (2:1, vol/vol) containing 1 nmol of heptadecanoic acid (HDA; NuChek Prep). […] HDA was eluted on an XDB Eclipse C18 column isocratically at 2.2 mL/min for 1 minute with a solvent mixture of 95% methanol and 5% water, both containing 0.25% acetic acid and 5 mM ammonium acetate. The column temperature was 50° C. Electrospray ionization (ESI) was in the negative mode, capillary voltage as 4 kV, and fragmentor voltage was 100 V. N2 was used as drying gas at a flow rate of 13 L/min and a temperature of 350° C. Nebulizer pressure was set at 60 psi. We monitored [M-H]- in the selected-ion monitoring (SIM) mode using HDA as internal standard. Calibration curves were generated using commercial lauric acid (Nu-Chek Prep; m/z=199).

r-NAAA = r-NAAA (Rattus norvegicus (Rat), UniProt Q5KTC7); test: r-NAAA inhibition, rat lung lysosomal NAAA preparation, UPLC/MS; type: biochemical; conditions: for inhibition at 3 µM: read-out: r-NAAA % inhib. @ 3 μM
r-NAAA, sequence (Q5KTC7 34-362): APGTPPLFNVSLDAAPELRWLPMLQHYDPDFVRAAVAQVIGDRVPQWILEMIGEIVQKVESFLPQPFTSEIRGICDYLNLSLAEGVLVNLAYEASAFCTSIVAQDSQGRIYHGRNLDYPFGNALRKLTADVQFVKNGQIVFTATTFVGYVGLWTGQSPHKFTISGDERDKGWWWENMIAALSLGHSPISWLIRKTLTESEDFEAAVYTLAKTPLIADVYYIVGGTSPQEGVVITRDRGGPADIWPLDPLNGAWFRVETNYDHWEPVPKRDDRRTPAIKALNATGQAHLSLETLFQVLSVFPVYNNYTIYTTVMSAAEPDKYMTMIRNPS
Protocol: Lysosomal NAAA protein preparation were obtained by homogenizing male Sprague-Dawley rat lungs (Charles River) in 20 mM Tris-HCl buffer pH 7.4 containing 0.32M sucrose. Samples were centrifuged at 800×g for 15 minutes at 4° C. Supernatants were then centrifuged at 12,000 g for 30 minutes at 4° C. Pellets were then resuspended in PBS pH 7.4 and subjected to a freeze/thaw cycle at −80° C. The suspension was finally centrifuged at 105,000×g for 1 hour at 4° C. The supernatant was then used in the enzymatic assay.
NAAA protein preparation was pre-incubated with various concentrations of test compounds or vehicle control in 100 mM NaH2PO4/Citrate buffer, 1% Triton-X, 3 mM DTT (pH 4.5) for 30 minutes at 37° C. Samples were then incubated with heptadecenoylethanolamide (50 μM, Avanti Polar Lipids) at 37° C. for 30 min. The reaction was terminated by addition of cold methanol containing heptadecanoic acid (NuCheck Prep) as internal standard. Samples were then analyzed by UPLC/MS (Acquity, Waters). Heptadecenoic and heptadecanoic acids were eluted on an Acquity UPLC BEH C18 column (50 mm length, 2.1 mm i.d., 1.7 μm pore size, Waters) isocratically at 0.5 mL/min for 1.5 min with a solvent mixture of 95% methanol and 5% water, both containing 0.25% Acetic Acid and 5 mM Ammonium Acetate. The column temperature was 40° C. Electrospray ionization was in the negative mode, capillary voltage was 0.5 kV, cone voltage was […], desolvation temperature was 500° C. N2 was used as drying gas at a flow rate of 1000 L/hour and a temperature of 500° C. The [M−H]^− ion was monitored in the selected-ion monitoring mode (m/z values: heptadecenoic acid 267.37, heptadecanoic acid 269.37). Calibration curves were generated using commercial heptadecenoic acid (NuCheck Prep). Inhibition of NAAA activity was calculated as reduction of heptadecenoic acid in the samples compared to vehicle controls. IC50 values were calculated by non-linear regression analysis of log [concentration]/inhibition curves using GraphPad Prism 5 (GraphPad Software Inc., CA—USA) applying a standard slope curve fitting.

Row | IC50 (r-NAAA) | Compound | also measured
1 | 480 nM | C[C@@H]1OC(=O)[C@H]1NC(=O)OCCCCCc1ccccc1 [Example 32, 5-Phenylpentyl-N-[(2S,3S)-2-methyl-4-oxo-oxetan-3-yl]-carbamate] | IC50 (Acid Ceramidase (AC)): 3800 nM
2 | 310 nM | C[C@@H]1OC(=O)[C@@H]1NC(=O)OC(C)(C)CCCCc1ccccc1 [Example 25, (1,1-Dimethyl-5-phenyl-pentyl)-N-[(2S,3R)-2-methyl-4-oxo-oxetan-3-yl]-carbamate] | inhibition at 0.3 µM (Acid Ceramidase (AC)): < 10%
3 | 6850 nM | O=C(N[C@H]1COC1=O)OCCCCCc1ccccc1 [drawing 83, reference compound] | IC50 (Acid Ceramidase (AC)): 1530 nM
4 | 110 nM | C[C@@H]1OC(=O)[C@@H]1NC(=O)OCCCCCCCc1ccccc1 [Example 16, 7-Phenylheptyl-N-[(2S,3R)-2-methyl-4-oxo-oxetan-3-yl]-carbamate] | 
5 | 510 nM | O=C(N[C@@H]1COC1=O)OCCCCCc1ccccc1 [reference compound] | IC50 (Acid Ceramidase (AC)): 30000 ± 2500 nM
6 | 40000 nM | C[C@@H]1OC(=O)[C@@H]1NC(=O)OC1(C)CCOCC1 [Example 11, (4-methyltetrahydropyran-4-yl)-N-[(2S,3R)-2-methyl-4-oxo-oxetan-3-yl]-carbamate] | 
7 | 840 nM | C[C@@H]1OC(=O)[C@@H]1NC(=O)OC1(C)CCCCC1 [Example 10, (1-methylcyclohexyl)-[(2S,3R)-2-methyl-4-oxo-oxetan-3-yl]-carbamate] | 
8 | 40 nM | CCCCCCCOC(=O)N[C@H]1C(=O)O[C@H]1C [Example 40, Heptyl-N-[(2S,3R)-2-methyl-4-oxo-oxetan-3-yl]-carbamate] | 
9 | 3760 nM | CCCCC1(OC(=O)N[C@H]2C(=O)O[C@H]2C)COC1 [Example 24, (3-butyloxetan-3-yl)-N-[(2S,3R)-2-methyl-4-oxo-oxetan-3-yl]-carbamate] | 
10 | 140 nM | C[C@@H]1OC(=O)[C@@H]1NC(=O)OCCOCCc1ccccc1 [Example 36, 2-Phenethyloxyethyl-N-[(2S,3R)-2-methyl-4-oxo-oxetan-3-yl]-carbamate] | 

The remaining lines, values behind:

Row | Compound | IC50 (r-NAAA) | also measured
11 | O=C(CCc1ccccc1)N[C@H]1COC1=O [(S)-OOPP, N-[(3S)-2-oxo-3-oxetanyl]-3-phenylpropanamide, reference compound] |  | Contact sensitivity response (ear swelling) (DNFB-induced dermatitis): did not inhibit contact sensitivity response
12 | CCCCCCCCOC(=O)N[C@H]1C(=O)O[C@H]1C [Example 2, Octyl-[(2S,3R)-2-methyl-4-oxooxetan-3-yl]-carbamate] | 30 nM | inhibition at 0.3 µM (Acid Ceramidase (AC)): < 10%
13 | CC(C)[C@H]1OC(=O)[C@@H]1NC(=O)OCc1ccc(-c2ccccc2)cc1 (relative stereo) [Example 52, (4-Phenylphenyl)-methyl-N-[(2R*,3R*)-2-isopropyl-4-oxo-oxetan-3-yl]-carbamate] |  | inhibition at 3 µM (r-NAAA): 93%
14 | Cc1ccc(CCOC(=O)N[C@H]2C(=O)O[C@H]2C)cc1 [Example 3, 2-(4-methylphenyl)ethyl-[(2S,3R)-2-methyl-4-oxooxetan-3-yl]-carbamate] | 1210 nM | 
15 | C[C@@H]1OC(=O)[C@@H]1NC(=O)OC1CCN(C(=O)c2ccccc2)CC1 [Example 9, (1-benzoyl-4-piperidyl)-N-[(2S,3R)-2-methyl-4-oxo-oxetan-3-yl]-carbamate] | 1310 nM | 
16 | CC(C)[C@@H]1OC(=O)[C@@H]1NC(=O)OCCCCCc1ccccc1 (relative stereo) [Example 53, 5-Phenylpentyl-N-[(2S*,3R*)-2-isopropyl-4-oxo-oxetan-3-yl]-carbamate] |  | inhibition at 3 µM (r-NAAA): 55%
17 | C[C@@H]1OC(=O)[C@@H]1NC(=O)OCCCCc1ccccc1 [Example 5, 4-phenylbutyl-[(2S,3R)-2-methyl-4-oxooxetan-3-yl]-carbamate] | 390 nM | inhibition at 0.3 µM (Acid Ceramidase (AC)): < 10%
18 | CCC1OC(=O)C1NC(=O)OC(C)(C)C (stereo not drawn) [Example 13, tert-Butyl-N-[(2S*,3R*)-2-ethyl-4-oxo-oxetan-3-yl]-carbamate and tert-Butyl-N-[(2S*,3S*)-2-ethyl-4-oxo-oxetan-3-yl]-carbamate] |  | inhibition at 3 µM (r-NAAA): 48%
19 | C[C@@H]1OC(=O)[C@@H]1NC(=O)OCCCc1ccccc1 [Example 4, 3-phenylpropyl-[(2S,3R)-2-methyl-4-oxooxetan-3-yl]-carbamate] | 84 nM | 
20 | C[C@@H]1OC(=O)[C@@H]1NC(=O)OCc1cccc(-c2ccccc2)c1 [Example 14, (3-phenylphenyl)-methyl-N-[(2S,3R)-2-methyl-4-oxo-oxetan-3-yl]-carbamate] |  | inhibition at 10 µM (r-NAAA; read-out: r-NAAA % inhib. @ 10 μM): 28%
21 | C[C@@H]1OC(=O)[C@@H]1NC(=O)Oc1ccc(OCc2ccccc2)cc1 [Example 26, (4-benzyloxyphenyl)-N-[(2S,3R)-2-methyl-4-oxo-oxetan-3-yl]-carbamate] | 290 nM | 
22 | CCCCCOC(=O)N[C@H]1C(=O)O[C@H]1C [Example 1, Pentyl-[(2S,3R)-2-methyl-4-oxooxetan-3-yl]-carbamate] | 670 nM | 

Source: US9353075B2, “Disubstituted beta-lactones as inhibitors of N-acylethanolamine acid amidase (NAAA)” (The Regents of the University of California, priority 2011, dated 2016)
